This passage reports melting point results from US20100069417A1, “NOVEL PHENYL(4-PHENYLPYRIMIDIN-2-YL)AMINE DERIVATIVES, THEIR PREPARATION, AS MEDICAMENTS, PHARMACEUTICAL COMPOSITIONS AND IN PARTICULAR AS IKK INHIBITORS” (SANOFI-AVENTIS, priority 2007, published 2010).

Each structure is given as a SMILES string.

As usually defined, the melting point is the temperature of the solid-liquid transition. On to `CN(Cc1ncc[nH]1)C1CCN(S(=O)(=O)c2ccc(Nc3nccc(-c4ccc(F)cc4)n3)cc2)CC1` [Example 3, [4-(4-Fluorophenyl)pyrimidin-2-yl]-(4-{4-[(1H-imidazol-2-ylmethyl) (methyl)amino]piperidin-1-ylsulphonyl}phenyl) amine], for which the melting point was 140 °C. For the compound `CNC1CCN(S(=O)(=O)c2ccc(Nc3nccc(-c4ccc(F)cc4)n3)cc2)CC1` [Example 1, [4-(4-Fluorophenyl)pyrimidin-2-yl][4-(4-(methylamino)piperidin-1-ylsulphonyl)phenyl]amine], the melting point stood at 202.9 °C. Compound `NCCN(C1CCN(Cc2ccccc2)CC1)S(=O)(=O)c1ccc(Nc2nccc(-c3ccc(F)cc3)n2)cc1` [Example 5, N-(2-Aminoethyl)-N-(1-benzylpiperidin-4-yl)-4-[4-(4-fluorophenyl)-pyrimidin-2-ylamino]benzenesulphonamide] returned a melting point of 194.4 °C.

Regarding `CN(CCS(C)(=O)=O)C1CCN(S(=O)(=O)c2ccc(Nc3nccc(-c4ccc(F)cc4)n3)cc2)CC1` [Example 2, [4-(4-Fluorophenyl)pyrimidin-2-yl]-(4-{4-[(2-(methylsulphonyl)ethyl)(methyl)amino]piperidin-1-ylsulphonyl}phenyl)amine], the melting point turned out to be 166.5 °C. Then `CN(C1CCNCC1)S(=O)(=O)c1ccc(Nc2nccc(-c3ccc(F)cc3)n2)cc1` [Example 4, 4-[4-(4-Fluorophenyl)pyrimidin-2-ylamino]-N-methyl-N-(piperidin-4-yl)benzenesulphonamide], with 115.6 °C.
